Source: US10912803B2, “Probiotic and polyphenol against neurodegeneration” (NESTEC S.A., priority 2012, dated 2021)

Assays:
[1] = target: T1, size exclusion purified monomeric Aβ42 (LMW) (Homo sapiens, UniProt P05067); test: Assay 1: Targeting monomeric Aβ assay, ThT fluorescence; type: biochemical; settings: for LMW (effects of compounds compared to control without compounds) - signal intensity: 37° C; for Inhibition of Aβ fibrillization: LMW, ratio and time not stated
T1 construct: size exclusion purified monomeric Aβ42 (LMW)
Protocol: Assay 1: Targeting Monomeric Aβ Assay (Timeframe 24-48 Hrs) (See FIG. 1):
In this assay, it was started with size exclusion purified monomeric Aβ42 (LMW). This was incubated with a compound of interest (C) at 37° C. The extent of aggregation was then assessed at 24 and 48 hrs by Thioflavin T (ThT) fluorescence. […] However, it is difficult to infer from this assay alone at which point along the amyloid formation pathway the compound acts, i.e., does interfere with monomer to protofibrils transition or block protofibrils to fibril transition.
(§1) Aβ42 LMW and PF were used at a final concentration of […] and incubated alone or with the compounds at a ratio of 1:0.5 or 1:2.

[2] = target: T2, size exclusion purified protofibrillar mixture of Aβ42 (PF) (Homo sapiens, UniProt P05067); test: Assay 2: Targeting protofibrillar Aβ assay, ThT fluorescence; type: biochemical; settings: for PF (effects of compounds compared to control without compounds) - signal intensity: 37° C; for Inhibition of Aβ fibrillization: PF, ratio and time not stated
T2 construct: size exclusion purified protofibrillar mixture of Aβ42 (PF)
Protocol: Assay 2: Targeting Protofibrillar Aβ Assay (Timeframe 24-48 Hrs) (See FIGS. 1 and 2A-2D):
In this assay it was started with a size exclusion purified protofibrillar mixture of Aβ42 (PF). This was incubated with the compound of interest (C) at 37° C. The extent of aggregation was then assessed at 24 and 48 hrs by Thioflavin T (ThT) fluorescence. […] This could occur via at least two mechanisms; i) blocking protofibrils to fibril transition or ii) inducing the dissociation/disaggregation of protofibrils.
as §1

[3] = 24 h, ratio Aβ42:compound 1:0.5, Aβ42 10 pM

T1 sequence (P05067 672-713 limits assumed): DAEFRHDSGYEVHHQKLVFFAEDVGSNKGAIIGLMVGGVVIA
T2 sequence (P05067 672-713 limits assumed): as above

Compound	LMW (effects of compounds compared to control without compounds) - signal intensity ([1]; 24 h, ratio 1:2, Aβ42 10 pM)	LMW (effects of compounds compared to control without compounds) - signal intensity [1, 3]	LMW (effects of compounds compared to control without compounds) - signal intensity ([1]; 48 h, ratio 1:0.5, Aβ42 10 pM)	LMW (effects of compounds compared to control without compounds) - signal intensity ([1]; 48 h, ratio 1:2, Aβ42 10 pM)	Inhibition of Aβ fibrillization [1] [%]	PF (effects of compounds compared to control without compounds) - signal intensity ([2]; 24 h, ratio 1:0.5, Aβ42 10 pM)	PF (effects of compounds compared to control without compounds) - signal intensity ([2]; 24 h, ratio 1:2, Aβ42 10 pM)	PF (effects of compounds compared to control without compounds) - signal intensity ([2]; 48 h, ratio 1:0.5, Aβ42 10 pM)	PF (effects of compounds compared to control without compounds) - signal intensity ([2]; 48 h, ratio 1:2, Aβ42 10 pM)	Inhibition of Aβ fibrillization [2] [%]
Chicoric acid [NP5]	Decrease	Decrease	Decrease	Decrease	50	Decrease	Decrease	Decrease	Decrease	41
O=C(/C=C/c1ccc(O)c(O)c1)O[C@@H](C(=O)O)[C@@H](O)C(=O)O [NP7, Caftaric acid]	Decrease	Decrease	Decrease	Decrease	42	Decrease	Decrease	Decrease	Decrease	35
